From patent US20050085509A1, “Piperidin-2-one derivative compounds and drugs containing these compounds as the active ingredient” (priority 2001, published 2005)

How the values were obtained:
[1] = biological target: T1, recombinant human p38αMAP kinase (Homo sapiens, UniProt Q16539); experiment: p38αMAP kinase inhibitory activity (1): ATF-2 phosphorylation, Western blotting; format: biochemical; details: Western blotting with anti-phosphorylated ATF-2 antibody; FIG. 1
T1 construct: purchased Upstate Biotechnology Inc. #14-251
T1 sequence (Q16539 whole entry): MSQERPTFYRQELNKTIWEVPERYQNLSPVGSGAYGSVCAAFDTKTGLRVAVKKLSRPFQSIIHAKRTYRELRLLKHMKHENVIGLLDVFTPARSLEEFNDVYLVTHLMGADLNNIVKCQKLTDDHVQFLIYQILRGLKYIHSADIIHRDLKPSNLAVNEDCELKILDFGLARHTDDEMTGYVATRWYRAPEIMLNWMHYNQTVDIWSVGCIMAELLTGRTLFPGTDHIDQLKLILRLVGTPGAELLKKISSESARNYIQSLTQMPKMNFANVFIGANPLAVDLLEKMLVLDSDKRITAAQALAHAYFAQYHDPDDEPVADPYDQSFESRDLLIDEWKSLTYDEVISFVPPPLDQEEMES
Text: (1) Study of p38αMAP Kinase Inhibitory Activity (1)
Using activation transcription factor 2 (activating transcription factor 2; ATF-2, Cell Signaling Inc., #9224L) which is a substrate of p38αMAP kinase, the inhibitory effect of the compound of the present invention on the ATF-2 phosphorylation by recombinant human p38αMAP kinase (Upstate Biotechnology Inc., #14-251) was studied by the Western-blotting method using the anti-phosphorylated ATF-2 antibody (Cell Signaling Inc., #9221L). In other words, 10 μL of a solution of the compound of the present invention at a known concentration was added to 10 μL of the kinase buffer (Cell Signaling Inc., #9802) containing recombinant human p38αMAP kinase (100 ng/tube) and pre-incubated for 10 minutes at 30° C. Then, 20 μL of adenosine triphosphate (ATP)/ATF-2 mixture was added and after the incubation of 30 minutes at 30° C., 20 μL of SDS buffer (187.5 mM Tris/6% SDS/30% glycerol/150 mM DTT/0.03% bromophenol blue) was added to stop the enzyme reaction. After heating at 100° C. for 5 minutes, mixing and centrifugation were conducted. After re-mixing, 20 μL of the sample was subjected to an electrophoresis on SDS-PAGE gel (10-20%, Daiichi Pure Chemicals Co., Ltd.). […] After washing with TBS-T solution, phosphorylated ATF-2 was detected using Western blotting detection reagent (Amersham Pharmacia Biotech).

[2] = biological target: T1, recombinant human p38αMAP kinase; experiment: p38αMAP kinase inhibitory activity (2): ATF-2 phosphorylation, Alpha Screen; format: biochemical; details: 30° C., 30 minutes, read-out: IC50, inhibition of ATF-2 phosphorylation by p38αMAP kinase
Experimental: (2) Study of p38αMAP Kinase Inhibitory Activity (2)
Using activation transcription factor 2 (hereinafter abbreviated as ATF-2) which is a substrate of p38αMAP kinase, the inhibition effect of the compound of the present invention on the ATF-2 phosphorylation by recombinant human p38αMAP kinase was examined.
A kinase buffer (25 mM Tris-HCl (pH 7.5), 5 mM β-glycerophosphate, 2 mM dithiothreitol, 0.1 mM Na3VO4, 10 mM MgCl2) containing recombinant human p38αMAP kinase (Upstate Biotechnology #14-251) (5 μL) was added to a 384-well plate for fluorescence measurement ([…] protein/well). […] Separately, 5 μL of a substrate mixture prepared with the kinase buffer (biotinylated ATF-2 (5 μg/mL) (Upstate Biotechnology, #14-432), adenosine triphosphate (90 μmol/L) (Sigma #FL-AAS) and anti-phosphorylated ATF-2 antibody (20-fold dilution) (Cell Signaling Technology, #9221L) were added and an enzyme reaction was carried out at 30° C. for 30 minutes. After completion of the reaction, the enzyme reaction was terminated by adding 5 μL of Hepes buffer containing 0.25% BSA and 100 mM EDTA. The amount of complex of phosphorylated ATF2 and anti-phosphorylated ATF2 generated by this reaction was measured using Alpha Screen™ Rabbit Detection kit (Packard #6760607). […]

[3] = system: THP-1; experiment: Inhibition activity against TNF-α production using human cell line THP-1; format: cell-based; details: 1.5 h, THP-1 cells, LPS stimulation, 90 minutes, ELISA, read-out: IC50, inhibition of LPS-induced TNF-α production
Experimental: (4) Inhibition Activity Against TNF-α Production Using Human Cell Line
Using THP-1, which is a human monocyte cell line, the inhibition effect of the compound of the present invention on the TNF-α production induced by lipopolyliposaccharide (LPS) stimulation was studied.
Each 50 μL of lipopolyliposaccharide (LPS; Difco #3120-25-0) prepared at the concentration of 40 ng/mL using RPMI-1640 medium containing 10% fetal calf serum (hereinafter abbreviated as RPMI-1640) and RPMI-1640 containing the compound of the present invention was added to a 96-well plate for tissue culture. […] After completion of the reaction, the culture medium supernatant was recovered and the amount of produced TNF-α was measured using an ELISA kit (Invitrogen, #850090192).
The inhibition activity against TNF-α production, which is the effect of the compound of the present invention, was calculated as an inhibition rate (%) by the following formula. Inhibition rate (%)={(AC−AX)/(AC−AB)}×100 • AB: Measured value without LPS induction • AC: Measured value with LPS induction in the absence of the compound • AX: Measured value with LPS induction in the presence of the compound

concentration at which ATF-2 phosphorylation by p38αMAP kinase was inhibited [1]: ≥ 0.3 µM
IC50 [2]: 42.9 nM
IC50 [3]: 14.5 nM
SMILES: O=C1CCC(Cc2ccc(F)cc2F)CN1c1c(Cl)cccc1Cl (stereo not drawn) [Example 1 (1), 1-(2,6-dichlorophenyl)-5-(2,4-difluorobenzyl)piperidin-2-one]
